Legend:
[1] = blank change (water instead of sample); assay type: physicochemical; conditions: 100 μl water instead of sample; extinction change at 578 nm
Protocol: (§1) 1.2 g. Sodium desoxycholate and 0.15 mg. colipase (from the pig) are dissolved in 60 ml. distilled water, with stirring. A solution of 70 mg. of the lipase substrate 1,2-0-dioctyl-rac-glycero-3-azelaic acid resorufin ester (Example 4) in 1.7 ml. n-propanol are injected herein under pressure in the thinnest possible stream, with vigorous stirring. A solution which, in 200 ml. distilled water, contains 1.5 g. urea, 1 g. sodium desoxycholate, 200 mg. sodium chloride, 800 mg. TRIS and 107 mg. TRIS.HCl, is well mixed with the above-produced emulsion.
(§2) 2.5 ml. of the so produced solution are mixed with 100 μ. of sample (serum). The reaction is monitored photometrically at 578 nm Hg.
The blank change was determined with a reagent according to Example 1 and various lipase substrates. Instead of the sample, 100 μ1. water were added and the extinction change monitored photometrically at 578 nm (ΔmE/min.).

[2] = tested on: carboxyl esterase (EC 3.1.1.1); test: esterase sensitivity; assay type: biochemical; conditions: for esterase sensitivity (activity 20,000 U/l): 100 μl carboxyl esterase about 20,000 U/l, 578 nm; for Esterase sensitivity: emulsion prepared as in Example 22
Protocol: as §1, §2
For the determination of the esterase sensitivity, instead of the sample there were added 100 μl. carboxyl esterase (EC 3.1.1.1; about 20,000 U/1. Boehringer Mannheim GmbH, Order No. 10 46 98) and the extinction change monitored as described above.

lipase (EC 3.1.1.3) [3] = test: lipase sensitivity; assay type: biochemical; conditions: for lipase sensitivity (activity 100 U/l): 100 μl lipase about 100 U/l, 578 nm
Protocol: as §1, §2
For the determination of the lipase sensitivity, instead of the sample there were added 100 μl. lipase (EC 3.1.1.3; about 100 U/1., Boehringer Mannheim GmbH, Order No. 41 45 90) and the extinction change monitored as described above.

[4] = blank change (water instead of sample); assay type: physicochemical
lipase (EC 3.1.1.3) [5] = test: lipase sensitivity; assay type: biochemical
[6] = emulsion prepared as in Example 22
[7] = taurodesoxycholate/TRIS reagent pH 7.5, 578 nm
[8] = fluorometric, 25° C., excitation 364 nm, emission 448 nm

With `CCCCCCCCCCOCC(COC(=O)CCCCCC(=O)Oc1ccc2nc3ccc(=O)cc-3oc2c1)OCCCCCCCCCC` (racemic) [Example 20, 1,2-0-Didecyl-rac-glycero-3-pimelic acid resorufin ester] the blank [1] was 1.3-2.0 ΔmE/min, the “esterase sensitivity (activity 20,000 U/l)” value [2] was 48.7 ΔmE/min and the “lipase sensitivity (activity 100 U/l)” value (lipase (EC 3.1.1.3) [3]) was 9.8 ΔmE/min.
For `CCCCCCCCCCCCOCC(COC(=O)CCCC(=O)Oc1ccc2nc3ccc(=O)cc-3oc2c1)OCCCCCCCCCCCC` (racemic) [Example 7, 1,2-O-Dilauryl-rac-glycero-3-glutaric acid resorufin ester], the blank [1] was 2.4-3.0 ΔmE/min, the “esterase sensitivity (activity 20,000 U/l)” value [2] was 34.8 ΔmE/min and the “lipase sensitivity (activity 100 U/l)” value (lipase (EC 3.1.1.3) [3]) was 10.9 ΔmE/min.
For `CCCCCCOCC(COC(=O)CCCC(=O)Oc1ccc2nc3ccc(=O)cc-3oc2c1)OCCCCCC` (racemic) [Example 1, 1,2-O-Dihexyl-rac-glycero-3-glutaric acid resorufin ester], the blank [1] was 13.2 ΔmE/min and the “esterase sensitivity (activity 20,000 U/l)” value [2] was > 1000 ΔmE/min.
With `CCCCCCCCCCCCOCC(COC(=O)CCCC(=O)Sc1ccc([N+](=O)[O-])cc1)OCCCCCCCCCCCC` (racemic) [Example 32, 1,2-0-Dilauryl-rac-glycero-3-qlutaric acid-(p-nitrothiophenyl)-ester] the blank ([4]; CHES reagent pH 8.3, 405 nm) was 0.3 mE/min and the Lipase sensitivity (lipase (EC 3.1.1.3) [5]; CHES reagent pH 8.3, 405 nm) was 12.2 mE/min per 100 U/1.
With `CCCCCCCCCCCCOCC(COC(=O)CCCCCCCCCCCCC(=O)Oc1ccc2nc3ccc(=O)cc-3oc2c1C)OCCCCCCCCCCCC` (racemic) [Example 28, 1,2-0-Dilauryl-rac-glycero-3-tetradecandiacid (6-methylresorufin) ester] the Esterase sensitivity [2] was 0.7 mE/min, the Lipase sensitivity (lipase (EC 3.1.1.3) [3]; [6]) was 23.6 mE/min per 100 U/1 and the blank [4, 6] was 0.2 mE/min.
For `CCCCCCCCCCCCOCC(COC(=O)CCCC(=O)Oc1ccc2nc3ccc(=O)cc-3oc2c1C)OCCCCCCCCCCCC` (racemic) [Example 29, 1,2-0-Dilauryl-rac-qlycero-3-glutaric-acid (6-methyl-resorufin)-ester], the blank [4, 7] was 0.4 mE/min and the Lipase sensitivity (lipase (EC 3.1.1.3) [5]; [7]) was 28 mE/min per 100 U/l.
In the case of `CCCCCCCCOCC(COC(=O)CCCC(=O)Oc1ccc2nc3ccc(=O)cc-3oc2c1)OCCCCCCCC` (racemic) [Example 2, 1,2-O-Dioctyl-rac-glycero-3-glutaric acid resorufin ester], the blank [1] is reported as 7.0 ΔmE/min, the “esterase sensitivity (activity 20,000 U/l)” value [2] is reported as 144.0 ΔmE/min and the “lipase sensitivity (activity 100 U/l)” value (lipase (EC 3.1.1.3) [3]) is reported as ~ 100 ΔmE/min.
Work on `CCCCCCCCCCCCSCC(COC(=O)CCCC(=O)Oc1ccc2nc3ccc(=O)cc-3oc2c1C)SCCCCCCCCCCCC` (racemic) [Example 37, 1,2-S-Dilauryl-rac-1,2-dithioglycero-3-glutaric acid (6-methylresorufin) ester] yielded an Esterase sensitivity [2] of 3.4 mE/min, a Lipase sensivity (lipase (EC 3.1.1.3) [3]; emulsion prepared as in Example 22, no lipase activity printed) of 24 mE/min and a blank [4, 6] of 3 mE/min.
For `CCCCCCCCCCCCCCCCOC[C@H](COC(=O)CCCC(=O)Oc1ccc2nc3ccc(=O)cc-3oc2c1)OCCCCCCCCCCCCCCCC` [Example 11, 1,2-O-Dihexadecyl-sn-glycero-3-glutaric acid resorufin ester], the blank [1] was 0.1 ΔmE/min, the “esterase sensitivity (activity 20,000 U/l)” value [2] was 1.8 ΔmE/min and the “lipase sensitivity (activity 100 U/l)” value (lipase (EC 3.1.1.3) [3]) was 0.97 ΔmE/min.
In the case of `CCCCCCCCCCCOCC(COC(=O)CCCC(=O)Oc1ccc2nc3ccc(=O)cc-3oc2c1)OCCCCCCCCCCC` (racemic) [Example 6, 1,2-O-Diundecyl-rac-glycero-3-glutaric acid resorufin ester], the blank [1] is reported as 2.0-2.8 ΔmE/min, the “esterase sensitivity (activity 20,000 U/l)” value [2] is reported as 23.6 ΔmE/min and the “lipase sensitivity (activity 100 U/l)” value (lipase (EC 3.1.1.3) [3]) is reported as 6.96 ΔmE/min.
`CCCCCCCCCCCCOCC(CSC(=O)CCCC(=O)Oc1ccc2nc3ccc(=O)cc-3oc2c1C)OCCCCCCCCCCCC` (racemic) [Example 36, 1,2-0-Dilauryl-rac-3-thioglycero-3-S-glutaric acid (6-methylresorufin) ester] gave an Esterase sensitivity [2] of 1.3 mE/min and a Lipase sensitivity (lipase (EC 3.1.1.3) [3]; [6]) of 4.1 mE/min per 100 U/1.
`CCCCCCCCCCCCCCCCC(COC(=O)CCCC(=O)Oc1ccc2nc3ccc(=O)cc-3oc2c1C)OCCCCCCCCCCCC` (stereo not shown) [Example 35] showed an Esterase sensitivity [2] of 1.0 mE/min and a Lipase sensitivity (lipase (EC 3.1.1.3) [3]; [6]) of 25.5 mE/min per 100 U/1.
With `CCCCCCCCCCOCC(COC(=O)CCCC(=O)Oc1ccc2nc3ccc(=O)cc-3oc2c1)OCCCCCCCCCC` (racemic) [Example 5, 1,2-O-Didecyl-rac-glycero-3-glutaric acid resorufin ester] the blank [1] was 2.4-3.0 ΔmE/min, the “esterase sensitivity (activity 20,000 U/l)” value [2] was 30.2 ΔmE/min and the “lipase sensitivity (activity 100 U/l)” value (lipase (EC 3.1.1.3) [3]) was 22.18 ΔmE/min.
`CCCCCCCCCCCCOCC(COC(=O)CCC(=O)Oc1ccc2nc3ccc(=O)cc-3oc2c1)OCCCCCCCCCCCC` (racemic) [Example 34, 1,2-0-Dilauryl-rac-glycero-3-succinic acid resorufin ester] showed a Lipase sensitivity (lipase (EC 3.1.1.3) [3]; [6]) of 8.7 mE/min per 100 U/1.
Compound `CCCCCCCCCCCCCCCCC(COCC(COC(=O)CCCC(=O)Oc1ccc2nc3ccc(=O)cc-3oc2c1C)OC)OC` (racemic) [Example 33, 1-0-(2-Methoxy-octadecyl)-2-0-methyl-rac-glycero-3-glutaric acid-(6-methylresorufin) ester] has an Esterase sensitivity [2] of 25.3 mE/min, a Lipase sensitivity (lipase (EC 3.1.1.3) [3]; [6]) of 19.0 mE/min per 100 U/1 and a blank [4, 6] of 8.4 mE/min.
For `CCCCCCCCCCCCOCC(COC(=O)CCCCCC(=O)Oc1ccc2nc3ccc(=O)cc-3oc2c1)OCCCCCCCCCCCC` (racemic) [Example 8, 1,2-O-Dilauryl-rac-glycero-3-pimelic acid resorufin ester], the blank [1] was 2.1-2.4 ΔmE/min, the “esterase sensitivity (activity 20,000 U/l)” value [2] was 27.8 ΔmE/min and the “lipase sensitivity (activity 100 U/l)” value (lipase (EC 3.1.1.3) [3]) was 4.68 ΔmE/min.
With `CCCCCCCCOCC(COC(=O)CCCCCCCC(=O)Oc1ccc2nc3ccc(=O)cc-3oc2c1)OCCCCCCCC` (racemic) [Example 4, 1,2-O-dioctyl-rac-glycero-3-azelaic acid resorufin ester] the blank [1] was 0.4-0.8 ΔmE/min, the “esterase sensitivity (activity 20,000 U/l)” value [2] was 33.6 ΔmE/min and the “lipase sensitivity (activity 100 U/l)” value (lipase (EC 3.1.1.3) [3]) was 18.04 ΔmE/min.
With `CCCCCCCCCCCCOCC(COC(=O)CCCCCCCC(=O)Oc1ccc2nc3ccc(=O)cc-3oc2c1)OCCCCCCCCCCCC` (racemic) [Example 21, 1,2-0-Dilauryl-rac-glycero-3-azelaic acid resorufin ester] the blank [1] was 9.8-11.9 ΔmE/min, the “esterase sensitivity (activity 20,000 U/l)” value [2] was 9.5 ΔmE/min and the “lipase sensitivity (activity 100 U/l)” value (lipase (EC 3.1.1.3) [3]) was 13.2 ΔmE/min.
For `CCCCCCCCOCC(COC(=O)CCCCCC(=O)Oc1ccc2nc3ccc(=O)cc-3oc2c1)OCCCCCCCC` (racemic) [Example 3, 1,2-O-dioctyl-rac-glycero-3-pimelic acid resorufin ester], the blank [1] was 3.9-4.1 ΔmE/min, the “esterase sensitivity (activity 20,000 U/l)” value [2] was 112.5 ΔmE/min and the “lipase sensitivity (activity 100 U/l)” value (lipase (EC 3.1.1.3) [3]) was 12.28 ΔmE/min.
Compound `CCCCCCCCCCCCOCC(COC(=O)CCCC(=O)Oc1ccc2c(C)cc(=O)oc2c1)OCCCCCCCCCCCC` (racemic) [Example 31, 1,2-0-Dilauryl-rac-glycero-3-glutaric acid-(4-methylumbelliferyl)-ester] has a blank [4, 8] of 0.4 mE/min and a Lipase sensitivity (lipase (EC 3.1.1.3) [5]; [8]) of 28 mE/min per 100 U/1.

Reference: patent US4988497A, “Process for the optical determination of lipase” (Boehringer Mannheim GmbH, priority 1985, dated 1991)
